Experiments:
DNA-PK = DNA-PK (Homo sapiens, UniProt P78527); conditions: cited from earlier work
ATM = ATM (Homo sapiens, UniProt Q13315); conditions: cited from earlier work
[1] = Maximum tolerated dose (MTD) of wortmannin formulations in non-tumor-bearing mice; conditions: mouse, in vivo, other: injected, mg/kg of wortmannin, in cremophor solution or encapsulated in nanoparticle (2% w/w)
Description: MTD, defined as the highest possible dose resulting in no animal deaths and less than 20% weight loss was evaluated for wortmannin formulations. Non-tumor-bearing mice (NOD/SCID, C57BL/6, CB6F1 and CD1) were injected with varying amounts of wortmannin nanoparticle and wortmannin in cremophor normalized to mg wortmannin injected/kg of mice body weight. The animals were weighed and observed daily for any change in physical activity. Weight loss greater than 20% and/or lethargy were interpreted as indications of toxicity and the mice were immediately euthanized.
Table 2 compares the maximum tolerated dose (MTD) of wortmannin in cremophor and wortmannin nanoparticle in different mouse strains.

[2] = Toxicity profile (hematologic toxicity, hepatotoxicity) in CD1 mice after tail vein i.v. injection; type: in vivo; conditions: single tail vein i.v.; for Hematologic Toxicity: Monocytes: normal range 0.1-1.5; for Hematologic Toxicity: Lymphocytes: normal range 0.5-5; for Hematologic Toxicity: Granulocytes: normal range 1.2-8; for Hematologic Toxicity: WBC: normal range 3.5-10; for Hepatotoxicity: ALT / Hepatotoxicity: AST: plasma, normal range 40-50 U/L
Description: CD1 mice were given tail vein i.v. injection with different wortmannin formulations (wortmannin nanoparticle or wortmannin in cremophor) at the indicated doses (⅕^th the MTD or 1/10th the MTD). After 24 h, submandibular bleeding was performed. Blood (100-200 ul) was collected in heparin coated tubes to prevent coagulation. Whole blood samples were immediately submitted for blood toxicity to the Animal Clinical Laboratory Core Facility at UNC. For liver toxicity studies, blood samples were centrifuged (15000×g for 10 minutes) to separate blood cells from the plasma and samples were submitted for analysis.
Table 3 and 4 show the toxicity profile in mice of wortmannin in cremophor and wortmannin nanoparticle.
Table 3 and 4. Toxicity profile in CD1 mice post i.v. injection of wortmannin formulations. Mice were treated with indicated doses of wortmannin or wortmannin nanoparticle containing an equivalent dose of wortmannin (2% w/w). (Single tail vein i.v. injection, toxicity profile 3 d post injection).

[3] = cited from earlier work
cancer cells = conditions: Bae et al. 2007, FIG. 6; cited from earlier work
[4] = 1/10th MTD of Wtmn (0.07 mg/kg)

Sequence of ATM (Q13315 whole entry, species assumed): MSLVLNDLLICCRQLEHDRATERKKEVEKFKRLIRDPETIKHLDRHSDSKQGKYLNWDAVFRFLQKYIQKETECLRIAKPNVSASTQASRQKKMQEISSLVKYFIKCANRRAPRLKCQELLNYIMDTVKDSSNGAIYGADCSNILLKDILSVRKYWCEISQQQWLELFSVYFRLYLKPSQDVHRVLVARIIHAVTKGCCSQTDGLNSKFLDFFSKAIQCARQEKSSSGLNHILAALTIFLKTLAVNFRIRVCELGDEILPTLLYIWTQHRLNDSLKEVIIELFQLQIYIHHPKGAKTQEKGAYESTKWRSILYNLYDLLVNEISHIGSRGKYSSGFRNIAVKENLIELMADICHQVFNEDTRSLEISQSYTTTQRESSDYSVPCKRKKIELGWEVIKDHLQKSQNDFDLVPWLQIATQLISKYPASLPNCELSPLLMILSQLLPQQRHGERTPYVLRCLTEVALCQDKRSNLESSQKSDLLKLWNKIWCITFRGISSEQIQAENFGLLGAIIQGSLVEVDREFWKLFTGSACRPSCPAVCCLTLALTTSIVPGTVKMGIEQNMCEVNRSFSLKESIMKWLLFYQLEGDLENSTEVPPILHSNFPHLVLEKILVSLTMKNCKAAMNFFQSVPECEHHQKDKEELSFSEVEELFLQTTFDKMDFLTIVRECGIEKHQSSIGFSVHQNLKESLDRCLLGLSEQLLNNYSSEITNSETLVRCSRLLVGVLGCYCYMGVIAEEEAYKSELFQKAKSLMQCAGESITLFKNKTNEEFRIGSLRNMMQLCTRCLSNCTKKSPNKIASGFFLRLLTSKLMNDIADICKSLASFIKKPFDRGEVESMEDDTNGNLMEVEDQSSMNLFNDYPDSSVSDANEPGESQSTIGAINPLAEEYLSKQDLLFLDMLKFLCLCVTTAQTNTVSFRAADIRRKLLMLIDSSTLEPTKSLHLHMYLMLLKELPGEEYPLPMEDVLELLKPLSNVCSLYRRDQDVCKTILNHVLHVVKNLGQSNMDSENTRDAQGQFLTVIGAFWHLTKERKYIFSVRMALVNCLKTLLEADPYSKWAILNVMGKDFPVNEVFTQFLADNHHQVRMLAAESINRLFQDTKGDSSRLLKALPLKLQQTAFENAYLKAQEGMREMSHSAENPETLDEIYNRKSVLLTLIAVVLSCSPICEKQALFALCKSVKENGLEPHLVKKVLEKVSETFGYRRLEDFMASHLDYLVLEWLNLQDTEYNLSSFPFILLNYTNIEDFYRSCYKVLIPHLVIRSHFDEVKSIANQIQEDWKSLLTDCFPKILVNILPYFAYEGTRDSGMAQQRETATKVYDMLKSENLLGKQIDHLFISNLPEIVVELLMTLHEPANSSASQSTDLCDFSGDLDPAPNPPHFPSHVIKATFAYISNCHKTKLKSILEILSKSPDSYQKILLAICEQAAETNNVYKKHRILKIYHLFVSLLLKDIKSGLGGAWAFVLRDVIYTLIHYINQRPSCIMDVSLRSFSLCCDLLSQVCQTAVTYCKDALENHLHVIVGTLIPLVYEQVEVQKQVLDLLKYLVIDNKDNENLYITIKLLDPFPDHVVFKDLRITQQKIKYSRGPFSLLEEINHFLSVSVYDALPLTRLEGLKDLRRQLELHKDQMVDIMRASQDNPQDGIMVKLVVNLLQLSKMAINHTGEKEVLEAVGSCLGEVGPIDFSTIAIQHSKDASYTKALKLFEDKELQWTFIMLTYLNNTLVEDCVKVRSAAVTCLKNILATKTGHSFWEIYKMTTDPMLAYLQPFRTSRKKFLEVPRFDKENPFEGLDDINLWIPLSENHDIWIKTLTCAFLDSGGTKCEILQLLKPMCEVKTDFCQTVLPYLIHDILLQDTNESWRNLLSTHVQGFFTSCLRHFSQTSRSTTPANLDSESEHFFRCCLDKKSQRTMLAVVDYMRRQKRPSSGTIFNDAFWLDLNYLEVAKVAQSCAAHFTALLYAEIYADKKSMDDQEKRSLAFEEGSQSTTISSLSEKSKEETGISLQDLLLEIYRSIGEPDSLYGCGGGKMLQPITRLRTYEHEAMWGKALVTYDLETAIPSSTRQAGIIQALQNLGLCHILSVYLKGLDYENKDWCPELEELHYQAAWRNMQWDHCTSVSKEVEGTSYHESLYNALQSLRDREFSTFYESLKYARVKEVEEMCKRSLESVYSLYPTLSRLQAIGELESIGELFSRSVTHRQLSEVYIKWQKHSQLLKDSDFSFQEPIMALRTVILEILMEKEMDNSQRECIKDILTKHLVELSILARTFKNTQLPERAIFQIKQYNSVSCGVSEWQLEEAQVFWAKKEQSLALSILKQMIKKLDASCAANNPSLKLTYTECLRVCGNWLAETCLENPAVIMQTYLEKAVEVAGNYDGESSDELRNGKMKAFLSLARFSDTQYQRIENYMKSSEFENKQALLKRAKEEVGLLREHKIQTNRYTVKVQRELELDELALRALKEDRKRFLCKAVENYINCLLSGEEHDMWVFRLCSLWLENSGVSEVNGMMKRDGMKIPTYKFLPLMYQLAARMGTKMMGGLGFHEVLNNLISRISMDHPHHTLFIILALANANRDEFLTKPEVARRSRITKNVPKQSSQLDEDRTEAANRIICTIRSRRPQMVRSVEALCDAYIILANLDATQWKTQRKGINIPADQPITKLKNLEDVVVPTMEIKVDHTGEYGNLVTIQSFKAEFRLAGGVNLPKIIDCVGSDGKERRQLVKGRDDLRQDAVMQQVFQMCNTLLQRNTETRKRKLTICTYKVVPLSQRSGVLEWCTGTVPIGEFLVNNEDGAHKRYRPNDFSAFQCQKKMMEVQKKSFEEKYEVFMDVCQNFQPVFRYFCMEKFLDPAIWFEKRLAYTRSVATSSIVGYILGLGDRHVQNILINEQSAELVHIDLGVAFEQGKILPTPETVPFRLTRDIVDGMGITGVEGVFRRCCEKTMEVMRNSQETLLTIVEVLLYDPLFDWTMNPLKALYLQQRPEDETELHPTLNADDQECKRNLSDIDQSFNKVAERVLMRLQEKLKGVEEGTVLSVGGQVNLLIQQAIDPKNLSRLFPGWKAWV

O=c1cc(N2CCOCC2)oc2c(-c3cccc4c3sc3ccccc34)cccc12 [NU7441]
IC50 (DNA-PK): 13 nM

O=c1cc(-c2cccc3c2Sc2ccccc2S3)oc(N2CCOCC2)c1 [KU-55933, 2-morpholin-4-yl-6-thianthren-1-yl-pyran-4-one]
inhibits ATM (ATM): low nanomolar concentrations

COC[C@H]1OC(=O)c2coc3c2[C@@]1(C)C1=C(C3=O)[C@@H]2CCC(=O)[C@@]2(C)C[C@H]1OC(C)=O [Wortmannin, wortmannin]
MTD ([1]; C57BL/6 (Black) mice): 0.7 mg/kg
MTD ([1]; CB6F1 (Brown) mice): 0.5 mg/kg
MTD ([1]; CD1 (White) mice): 0.7 mg/kg
MTD ([1]; NOD/SCID mice): 0.7 mg/kg
Hematologic Toxicity: Monocytes ([2]; 1/5th MTD of Wtmn (0.14 mg/kg)): 0.55 ± 0.07 103/μl
Hematologic Toxicity: Lymphocytes ([2]; 1/5th MTD of Wtmn (0.14 mg/kg)): 0.4 ± 0.42 103/μl
Hematologic Toxicity: Granulocytes ([2]; 1/5th MTD of Wtmn (0.14 mg/kg)): 0.8 ± 0.14 103/μl
Hematologic Toxicity: WBC ([2]; 1/5th MTD of Wtmn (0.14 mg/kg)): 2.8 ± 0.28 103/μl
Hepatotoxicity: ALT ([2]; 1/5th MTD of Wtmn (0.14 mg/kg)): 134 ± 17 U/L
Hepatotoxicity: AST ([2]; 1/5th MTD of Wtmn (0.14 mg/kg)): 44 ± 3 U/L
Hematologic Toxicity: Monocytes [2, 4]: 0.8 ± 0.42 103/μl
Hematologic Toxicity: Lymphocytes [2, 4]: 0.9 ± 0.28 103/μl
Hematologic Toxicity: Granulocytes [2, 4]: 2.4 ± 0.11 103/μl
Hematologic Toxicity: WBC [2, 4]: 4.3 ± 0.13 103/μl
Hepatotoxicity: ALT [2, 4]: 64 ± 11 U/L
Hepatotoxicity: AST [2, 4]: 40 ± 7 U/L
half-life in serum [3]: approximately 10 minutes
cytotoxicity against cancer cells (cancer cells): unexpectedly low cytotoxicity

Reference: patent US20140017165A1, “DNA REPAIR ENZYME INHIBITOR NANOPARTICLES AND USES THEREOF” (priority 2011, published 2014)
